# Results as given in PMC6713104, “New peptide derived antimalaria and antimicrobial agents bearing sulphonamide moiety” (Journal of Enzyme Inhibition and Medicinal Chemistry, 2019).
# Read-outs that look alike come from different tables or passages of the source. Non-standard residues stand in square brackets, D forms with d. Residues, ends and D or L forms follow the SMILES beside them. ξ: configuration not given here. *: point of attachment. Tos = Cc1ccc(S(=O)(=O)*)cc1; βNA = c1ccc2cc(N*)ccc2c1; NHPh = c1ccc(N*)cc1; ξA = CC(N)C(=O)O
# Legend:
# [1] = system: K. pneumoniae; assay: Antimicrobial MIC, agar cup diffusion; format: cell-based; conditions: Klebsiella pneumoniae, read-out: MIC (minimum inhibitory concentration)
# [2] = system: A. niger; assay: Antimicrobial MIC, agar cup diffusion; format: cell-based; conditions: Aspergillus niger, read-out: MIC (minimum inhibitory concentration)
# [3] = system: P. falciparum strain W2; assay: In vitro antimalarial assay; format: cell-based; conditions: Plasmodium falciparum, W2; P. falciparum, 48 h, >99% of parasites inhibited from developing to schizonts
# [4] = system: Plasmodium berghei infection in mice; assay: In vivo antimalaria test; conditions: P. berghei infected mice; for inhibition in vivo at 100 mg/kg / inhibition in vivo at 200 mg/kg: Plasmodium berghei, oral
# Experimental: Experimental Design and Treatment of Mice. Methods of Peter et al.[30] and Kalra et al.[31] for antiplasmodial assay against Plasmodium berghei infection in mice with some modifications were employed. About eighty infected mice were randomly divided into five groups, each having […] mice. The inoculum was prepared from a donor mouse with rising parasitemia of 60.42%. After 7 days of infection, animals begin to receive treatment (100 and 200 mg/kg b wt.) of the synthesized compounds (7a–7n) for 12 days with constant check of the percentage of parasitemia after a 4-day interval. Artemisinin (100 and 200 mg/kg body weight.) was given to the other mice in group three as positive control, group four was not treated and group five was not infected. All the compounds and the drugs were given orally by using a standard intragastric tube. For all parasitemia determination, blood samples were collected from tail snip of each mouse and thin smears prepared and stained with 10% Giemsa solution. The uniform fields of each stained slide (for each mouse) were examined under microscope with an oil immersion objective of 100X magnification power and average percent of parasitemia was determined.
# To determine the in vivo activity, the compounds were tested against P. berghei NK(65 Strain) infection mice., the animals were obtained from Nigeria institute for Trypanosoma and onchocercarioses Research (NTIR) Vom, Plateau State Nigeria. The permission and approval for the use of animals in this experiment were granted by the Animal Ethics Committee, Federal College of Vetrenary Medical Laboratory, Vom, Plateau State. Method of Peter et al.[30], for antiplasmodial assay against P. berghei in mice with some modification were employed. Artemisimin was used as treated control of the experiments. The percentage inhibition of parasite multiplication was calculated comparing the treated group with untreated group by means of the following formula[39] [(A − B)/A] × 100; where A = parasitaemia in the untreated group and B = parasitemia in the test group. […] Most of the compounds were active against P. berghei after 7 days post-infection by reducing the parasiteamia by at least 40% when in a dose of 100 mg/kg (Table 5). The inhibition of parasitaemia increased on 12th day post infection for almost all the compounds. […] However in consideration of the compounds ability to inhibit parasitaemia to the control drug. […] These compounds should be considered for further studies because of its promising activities.
# [5] = system: E. coli; assay: Antimicrobial MIC, agar cup diffusion; format: cell-based; conditions: Escherichia coli, read-out: MIC (minimum inhibitory concentration)
# [6] = system: S. typhi; assay: Antimicrobial MIC, agar cup diffusion; format: cell-based; conditions: Salmonella enterica, read-out: MIC (minimum inhibitory concentration)
# [7] = system: C. albicans; assay: Antimicrobial MIC, agar cup diffusion; format: cell-based; conditions: Candida albicans, read-out: MIC (minimum inhibitory concentration)
# [8] = system: B. subtilis; assay: Antimicrobial MIC, agar cup diffusion; format: cell-based; conditions: for MIC: Bacillus subtilis, B. subtilis, read-out: MIC (minimum inhibitory concentration); for activity against Bacillus compared with ciprofloxacin: in words
# [9] = Haematological analysis; format: in vivo, mice
# Excerpt: (§1) Twenty-four hours before the injecting the compounds, the blood sample of five mice was taken and it was also taken after the last day of treatment, the animals were sacrificed by cervical dislocation and the blood samples were collected by heart puncture. The blood samples for haematological parameters (red blood cell (RBC) count, white blood cell (WBC) count, packed cell volume (PCV), and hemoglobin (HGB)) were collected into EDTA bottles and analyzed using an automated machine (Automated CBC Analyzer: Sysmex KX-21).
# The blood samples for haematological parameters (red blood cell (RBC) count, white blood cell (WBC) count, packed cell volume (PCV), and haemoglobin (HGB)) were collected into EDTA bottles and analyzed using an automated machine (Automated CBC Analyzer: Sysmex KX-21) (Table 8). From the analysis, even though there is a decrease in the value of RBC, PCV and HB, it is observed that there is no significant changes in the parameters that were analyzed for the control and the test compounds.
# [10] = Renal or kidney function test; format: in vivo; conditions: mice, 10 mg/kg
# Excerpt: as §1, with “KX-21). Kidney function tests carried out with the blood of the rats fed with the sulfonamide derivatives were, creatinine and albunim. The method reported by Kaplan and Tengv[33] was used in the determination of creatinine.” for “KX-21).”
# [11] = Liver function tests; format: in vivo; set-up: Glucose: unit not given here; conditions: mice, 10 mg/kg
# Excerpt: as §1, with “KX-21). The liver function tests carried out with the blood of the rats fed with the sulfonamide derivatives were aspartate aminotransperase (AST), alanine transaminase (ALT) and alkaline phosphatase (ALP). Standard laboratory procedure according to Reitman and Franke[32] was used for the determination of parameters.” for “KX-21).”
# [12] = 168 h, read-out: % inhibition 7 days post-treatment (100 mg/kg), day 7
# [13] = 168 h, read-out: % inhibition 7 days post-treatment (200 mg/kg), day 7
# [14] = 288 h, read-out: % inhibition 12 days post-treatment (100 mg/kg), day 12
# [15] = 288 h, read-out: % inhibition 12 days post-treatment (200 mg/kg), day 12
compound,measurement,setting,value
"Cc1ccc(S(=O)(=O)NC(C)C(=O)NCC(=O)Nc2ccccc2)cc1 (centres unmarked) [Compound 7m, 2–(4-methylphenylsulfonamido)-N-(2-oxo-2-(phenylamino)ethyl)propanamide] (Tos-[ξA]-Gly-NHPh)",MIC,[1],138 µg/mL
same,MIC,[2],56 µg/mL
same,MIC,[3],1.87 µM
same,inhibition in vivo at 100 mg/kg,[4]; [12],33.5%
same,inhibition in vivo at 200 mg/kg,[4]; [13],71.4%
same,inhibition in vivo at 100 mg/kg,[4]; [14],29.3%
same,inhibition in vivo at 200 mg/kg,[4]; [15],74%
same,MIC,[5],123 µg/mL
same,MIC,[6],57 µg/mL
same,MIC,[7],7940 µg/mL
same,MIC,[8],129 µg/mL
same,activity against Bacillus compared with ciprofloxacin,[8],greater activity against Bacillus than ciprofloxacin
"O=C(O)c1cn(C2CC2)c2cc(N3CCNCC3)c(F)cc2c1=O [CIP, Ciprofloxacin, reference compound]",MIC,[1],113 µg/mL
same,MIC,[5],131 µg/mL
same,MIC,[6],128 µg/mL
same,MIC,[8],184 µg/mL
"Cc1ccc(S(=O)(=O)NC(C)C(=O)NCC(=O)Nc2cccc(F)c2)cc1 (centres unmarked) [Compound 7j, N-(2-((3-fluorophenyl)amino)-2-oxoethyl)-2–(4-methylphenylsulfonamido)propanamide]",MIC,[1],83 µg/mL
same,MIC,[3],0.88 µM
same,ability to inhibit parasitaemia compared to the control drug,[4]; in words,almost the same or better activity compared to the artemisinin
same,inhibition in vivo at 100 mg/kg,[4]; [12],77.9%
same,inhibition in vivo at 200 mg/kg,[4]; [13],77.4%
same,inhibition in vivo at 100 mg/kg,[4]; [14],82.7%
same,inhibition in vivo at 200 mg/kg,[4]; [15],73.5%
same,HB,[9]; After treatment,10.0 g/dL
same,PCV,[9]; After treatment,34%
same,RBC,[9]; After treatment,6.5 × 10^6 mm^3
same,WBC,[9]; After treatment,9.1 × 10^3 mm^3
same,HB,[9]; Before treatment,13.5 g/dL
same,PCV,[9]; Before treatment,39%
same,RBC,[9]; Before treatment,7.1 × 10^6 mm^3
same,WBC,[9]; Before treatment,8.0 × 10^3 mm^3
same,MIC,[5],275 µg/mL
same,MIC,[6],129 µg/mL
same,Albumin,[10]; After,4.0 g/dL
same,Creatinine,[10]; After,0.3 mg/dL
same,Albumin,[10]; Before,3.9 g/dL
same,Creatinine,[10]; Before,0.4 mg/dL
same,ALT,[11]; After,25.5 µ/L
same,AST,[11]; After,60.0 µ/L
same,Bilirubin,[11]; After,0.2 mg/dL
same,T.P.,[11]; After,5.8 g/dL
same,ALT,[11]; Before,26.3 µ/L
same,AST,[11]; Before,65.0 µ/L
same,Bilirubin,[11]; Before,0.4 mg/dL
same,T.P.,[11]; Before,6.0 g/dL
same,MIC,[7],371 µg/mL
same,MIC,[8],245 µg/mL
"Cc1ccc(S(=O)(=O)NC(C)C(=O)NCC(=O)Nc2ccc(F)cc2)cc1 (centres unmarked) [Compound 7k, N-(2-((4-fluorophenyl)amino)-2-oxoethyl)-2–(4-methylphenylsulfonamido)propanamide]",MIC,[1],79 µg/mL
same,MIC,[2],316 µg/mL
same,MIC,[3],0.53 µM
same,inhibition in vivo at 100 mg/kg,[4]; [12],40.4%
same,inhibition in vivo at 200 mg/kg,[4]; [13],54.9%
same,inhibition in vivo at 100 mg/kg,[4]; [14],44.3%
same,inhibition in vivo at 200 mg/kg,[4]; [15],56.4%
same,MIC,[5],316 µg/mL
same,MIC,[6],3160 µg/mL
same,MIC,[7],63.1 µg/mL
same,MIC,[8],371 µg/mL
CC(NS(=O)(=O)c1ccccc1)C(=O)NCC(=O)Nc1cccc(F)c1 (centres unmarked) [Compound 7c],MIC,[1],129 µg/mL
same,MIC,[3],0.72 µM
same,inhibition in vivo at 100 mg/kg,[4]; [12],48.3%
same,inhibition in vivo at 200 mg/kg,[4]; [13],40.2%
same,inhibition in vivo at 100 mg/kg,[4]; [14],51.3%
same,inhibition in vivo at 200 mg/kg,[4]; [15],48.7%
same,melting point,,125 to 127 °C
same,HB,[9]; After treatment,9.8 g/dL
same,PCV,[9]; After treatment,33%
same,RBC,[9]; After treatment,6.0 × 10^6 mm^3
same,WBC,[9]; After treatment,9.0 × 10^3 mm^3
same,HB,[9]; Before treatment,14.5 g/dL
same,PCV,[9]; Before treatment,38%
same,RBC,[9]; Before treatment,7.5 × 10^6 mm^3
same,WBC,[9]; Before treatment,10.3 × 10^3 mm^3
same,MIC,[5],372 µg/mL
same,MIC,[6],2690 µg/mL
same,Albumin,[10]; After,3.0 g/dL
same,Creatinine,[10]; After,0.3 mg/dL
same,Albumin,[10]; Before,3.5 g/dL
same,Creatinine,[10]; Before,0.3 mg/dL
same,ALT,[11]; After,23.5 µ/L
same,AST,[11]; After,61.5 µ/L
same,Bilirubin,[11]; After,0.5 mg/dL
same,Glucose,[11]; After,5.0
same,T.P.,[11]; After,5.5 g/dL
same,ALT,[11]; Before,20.5 µ/L
same,AST,[11]; Before,62.0 µ/L
same,Bilirubin,[11]; Before,0.3 mg/dL
same,Glucose,[11]; Before,5.6
same,T.P.,[11]; Before,5.8 g/dL
same,MIC,[7],3470 µg/mL
same,MIC,[8],3470 µg/mL
"CC(NS(=O)(=O)c1ccccc1)C(=O)NCC(=O)Nc1cccc(Cl)c1 (centres unmarked) [Compound 7a, N-(2-((3-chlorophenyl)amino)-2-oxoethyl)-2-(phenylsulfonamido)propanamide]",MIC,[1],251 µg/mL
same,MIC,[2],1580 µg/mL
same,MIC,[3],0.37 µM
same,inhibition in vivo at 100 mg/kg,[4]; [12],36.2%
same,inhibition in vivo at 200 mg/kg,[4]; [13],52.1%
same,inhibition in vivo at 100 mg/kg,[4]; [14],50%
same,inhibition in vivo at 200 mg/kg,[4]; [15],61.4%
same,MIC,[5],489 µg/mL
same,MIC,[6],199 µg/mL
same,MIC,[7],56.1 µg/mL
same,MIC,[8],219 µg/mL
"CC(NS(=O)(=O)c1ccccc1)C(=O)NCC(=O)Nc1ccccc1 (centres unmarked) [Compound 7f, N-(2-oxo-2-(phenylamino)ethyl)-2-(phenylsulfonamido)propanamide]",MIC,[1],5010 µg/mL
same,MIC,[2],105 µg/mL
same,MIC,[3],2.32 µM
same,inhibition in vivo at 100 mg/kg,[4]; [12],38.2%
same,inhibition in vivo at 200 mg/kg,[4]; [13],71%
same,inhibition in vivo at 100 mg/kg,[4]; [14],41.9%
same,inhibition in vivo at 200 mg/kg,[4]; [15],73.3%
same,MIC,[5],131 µg/mL
same,MIC,[6],4680 µg/mL
same,MIC,[7],214 µg/mL
same,MIC,[8],155 µg/mL
same,activity against Bacillus compared with ciprofloxacin,[8],greater activity against Bacillus than ciprofloxacin
"OC(Cn1cncn1)(Cn1cncn1)c1ccc(F)cc1F [FLU, Fluconazole, reference compound]",MIC,[2],47.1 µg/mL
same,MIC,[7],21.7 µg/mL
"C[C@@H]1CC[C@H]2[C@@H](C)C(=O)O[C@@H]3O[C@@]4(C)CC[C@@H]1[C@]32OO4 [Artemisinin, reference compound]",MIC,[3],0.72 µM
same,inhibition in vivo at 100 mg/kg,[4]; [12],75.7%
same,inhibition in vivo at 200 mg/kg,[4]; [13],78.9%
same,inhibition in vivo at 100 mg/kg,[4]; [14],86.2%
same,inhibition in vivo at 200 mg/kg,[4]; [15],82.3%
"Cc1ccc(S(=O)(=O)NC(C)C(=O)NCC(=O)Nc2ccc3ccccc3c2)cc1 (centres unmarked) [Compound 7n, 2–(4-methylphenylsulfonamido)-N-(2-(naphthalene-2-ylamino)-2-oxoethyl)propanamide] (Tos-[ξA]-Gly-βNA)",MIC,[2],39 µg/mL
same,MIC,[3],2.34 µM
same,inhibition in vivo at 100 mg/kg,[4]; [12],47.8%
same,inhibition in vivo at 200 mg/kg,[4]; [13],63.8%
same,inhibition in vivo at 100 mg/kg,[4]; [14],49.1%
same,inhibition in vivo at 200 mg/kg,[4]; [15],71.7%
same,melting point,,174 to 176 °C
same,MIC,[5],123 µg/mL
same,MIC,[6],617 µg/mL
same,MIC,[7],155 µg/mL
